Data from ChEMBL document CHEMBL1201862, “PubChem BioAssay data set” (2004).
The source made the active and inactive calls.

Tests used:
[1] = molecular target: Female germline-specific tumor suppressor gld-1 (Caenorhabditis elegans, UniProt Q17339); assay: blockers of GLD-1/TGE RNA complex formation – biochemical, fluorescence polarization, C. elegans, dose response (AID 2802);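 also: fluorescence polarization of labeled TGE RNA bound by purified gld-1 protein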
[2] = molecular target: Protein Rev (Human immunodeficiency virus type 1 group M subtype B (isolate HXB2)(HIV-1), UniProt P04618); assay: blockers of HIV Rev/RRE RNA complex – biochemical, fluorescence polarization, HIV-1, dose response (AID 434976); parameters: species or system Human immunodeficiency virus 1
Chain of Protein Rev (P04618 whole entry): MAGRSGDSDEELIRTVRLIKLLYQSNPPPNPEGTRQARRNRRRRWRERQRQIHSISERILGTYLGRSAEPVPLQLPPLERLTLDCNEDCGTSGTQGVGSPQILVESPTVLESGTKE

[3] = molecular target: Kallikrein-7 (Homo sapiens, UniProt P49862); assay: Fluorescence Intensity-based biochemical primary high throughput dose response assay to identify activators of kallikrein-7 (K7) zymogen.
Chain of Kallikrein-7 (P49862 whole entry): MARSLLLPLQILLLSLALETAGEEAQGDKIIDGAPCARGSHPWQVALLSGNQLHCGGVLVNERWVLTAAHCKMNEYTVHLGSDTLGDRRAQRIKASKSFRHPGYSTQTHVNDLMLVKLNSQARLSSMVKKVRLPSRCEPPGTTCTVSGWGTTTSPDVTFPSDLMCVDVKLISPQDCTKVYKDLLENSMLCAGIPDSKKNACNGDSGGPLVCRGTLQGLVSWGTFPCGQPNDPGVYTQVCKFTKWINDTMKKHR

[4] = molecular target: Acyl-homoserine lactone acylase PvdQ (Pseudomonas aeruginosa (strain LESB58), UniProt Q9I194); assay: PvdQ acylase enzyme activity blockers – biochemical, fluorescence, plate reader and imaging, cherry-picks, dose response (AID 493231)
Chain of Acyl-homoserine lactone acylase PvdQ (Q9I194 24-193 limits assumed): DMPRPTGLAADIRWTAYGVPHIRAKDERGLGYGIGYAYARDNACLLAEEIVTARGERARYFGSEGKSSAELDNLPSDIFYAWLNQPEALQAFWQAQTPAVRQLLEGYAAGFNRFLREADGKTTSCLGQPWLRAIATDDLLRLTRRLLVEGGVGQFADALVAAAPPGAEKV
Chain of Acyl-homoserine lactone acylase PvdQ (Q9I194 217-762 limits assumed): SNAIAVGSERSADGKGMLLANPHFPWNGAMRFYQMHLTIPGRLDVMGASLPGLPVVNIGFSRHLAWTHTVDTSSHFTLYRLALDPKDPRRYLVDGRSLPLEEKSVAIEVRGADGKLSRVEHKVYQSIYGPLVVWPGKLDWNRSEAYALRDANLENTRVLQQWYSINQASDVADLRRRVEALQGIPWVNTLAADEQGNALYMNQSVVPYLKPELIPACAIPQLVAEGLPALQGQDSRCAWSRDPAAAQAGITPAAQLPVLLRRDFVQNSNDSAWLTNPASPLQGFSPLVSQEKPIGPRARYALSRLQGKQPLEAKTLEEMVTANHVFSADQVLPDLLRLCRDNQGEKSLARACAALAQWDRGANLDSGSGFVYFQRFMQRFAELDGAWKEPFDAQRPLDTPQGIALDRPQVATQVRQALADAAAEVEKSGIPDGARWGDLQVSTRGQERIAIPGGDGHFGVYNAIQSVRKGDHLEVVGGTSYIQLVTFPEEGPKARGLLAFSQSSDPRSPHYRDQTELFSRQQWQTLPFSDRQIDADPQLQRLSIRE

[5] = molecular target: Melanin-concentrating hormone receptor 1 (Homo sapiens, UniProt Q99705); assay: Late-stage fluorescence-based counterscreen for antagonists of the G-protein coupled receptor 7 (GPR7): cell-based dose response assay to identify antagonists of the melanin-concentrating hormone receptor 1 (MCHR1). [Related pubchem assays (depositor defined):AID1861, AID1880, AID1952, AID2148, AID2251, AID2257, AID485339]; format: functional;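 also: stimulated with 30 nM MCH peptide agonist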
Chain of Melanin-concentrating hormone receptor 1 (Q99705 whole entry): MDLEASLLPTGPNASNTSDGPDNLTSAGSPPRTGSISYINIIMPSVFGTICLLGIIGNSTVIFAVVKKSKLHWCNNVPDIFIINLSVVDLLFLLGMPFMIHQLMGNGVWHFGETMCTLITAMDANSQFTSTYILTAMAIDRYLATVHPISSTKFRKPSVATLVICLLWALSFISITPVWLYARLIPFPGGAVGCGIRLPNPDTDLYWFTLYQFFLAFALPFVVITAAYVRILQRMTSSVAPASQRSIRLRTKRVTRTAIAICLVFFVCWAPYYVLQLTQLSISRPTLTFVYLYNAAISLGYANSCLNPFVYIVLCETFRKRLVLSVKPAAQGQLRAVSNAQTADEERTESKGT

[6] = molecular target: Delta-type opioid receptor (Homo sapiens, UniProt P41143); assay: SAR Analysis of Antagonists of the DOR Receptor using an Image-Based Assay - Set 3. [Related pubchem assays (depositor defined):AID1777, AID1785]; format: functional;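 also: U2OS cells expressing DOR1 and beta-arrestin GFP stimulated with 100 nM SNC80; imaging of GFP-tagged beta-arrestin moving into spots after receptor activation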
Chain of Delta-type opioid receptor (P41143 whole entry): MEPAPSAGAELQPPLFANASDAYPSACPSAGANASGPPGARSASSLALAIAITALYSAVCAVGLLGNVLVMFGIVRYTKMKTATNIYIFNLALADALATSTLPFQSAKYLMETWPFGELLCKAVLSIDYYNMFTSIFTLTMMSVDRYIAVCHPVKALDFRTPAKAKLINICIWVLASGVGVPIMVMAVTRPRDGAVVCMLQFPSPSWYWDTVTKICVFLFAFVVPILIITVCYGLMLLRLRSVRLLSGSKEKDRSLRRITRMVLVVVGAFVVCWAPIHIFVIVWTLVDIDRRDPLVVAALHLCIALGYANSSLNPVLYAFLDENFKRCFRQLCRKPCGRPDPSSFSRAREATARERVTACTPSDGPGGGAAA

[7] = molecular target: Mu-type opioid receptor (Homo sapiens, UniProt P35372); assay: SAR Analysis of Antagonists of the MOR Receptor using an Image-Based Assay - Set 3. [Related pubchem assays (depositor defined):AID1777, AID1785, AID1786, AID1966, AID2133, AID2136, AID2284, AID2285, AID2420]; format: functional
Chain of Mu-type opioid receptor (P35372 whole entry): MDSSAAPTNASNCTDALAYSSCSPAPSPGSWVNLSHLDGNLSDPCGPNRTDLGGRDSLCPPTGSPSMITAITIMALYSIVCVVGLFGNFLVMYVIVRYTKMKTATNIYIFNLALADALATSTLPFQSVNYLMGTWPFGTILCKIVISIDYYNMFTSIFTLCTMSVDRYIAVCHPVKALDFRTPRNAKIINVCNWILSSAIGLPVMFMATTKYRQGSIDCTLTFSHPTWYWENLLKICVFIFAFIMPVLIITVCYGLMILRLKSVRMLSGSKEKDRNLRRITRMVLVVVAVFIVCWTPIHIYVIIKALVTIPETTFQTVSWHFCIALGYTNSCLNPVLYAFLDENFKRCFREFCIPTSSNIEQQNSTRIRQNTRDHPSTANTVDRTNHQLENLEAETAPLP

[8] = molecular target: T1, Kappa-type opioid receptor (Homo sapiens, UniProt P41145); assay: SAR analysis of Antagonists of the Kappa Opioid Receptor (KOR) using an Image-Based Assay - Set 3. [Related pubchem assays (depositor defined):AID1777, AID1785]; format: functional
T1 sequence (P41145 whole entry): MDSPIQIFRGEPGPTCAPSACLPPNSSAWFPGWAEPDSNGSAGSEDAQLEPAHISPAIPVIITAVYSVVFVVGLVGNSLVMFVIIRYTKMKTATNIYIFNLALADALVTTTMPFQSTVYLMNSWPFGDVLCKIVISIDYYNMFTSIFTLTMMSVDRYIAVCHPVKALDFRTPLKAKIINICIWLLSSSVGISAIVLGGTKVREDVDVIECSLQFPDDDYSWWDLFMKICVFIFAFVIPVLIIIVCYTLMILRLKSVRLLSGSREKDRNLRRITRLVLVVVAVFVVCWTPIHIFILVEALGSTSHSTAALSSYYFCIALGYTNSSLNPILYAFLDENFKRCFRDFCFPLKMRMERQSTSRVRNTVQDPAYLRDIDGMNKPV

[9] = molecular target: T1, Kappa-type opioid receptor; assay: SAR analysis of small molecule antagonists of the kappa opioid receptor via a luminescent beta-arrestin assay - Set 3. [Related pubchem assays (depositor defined):AID1777, AID1778, AID1785, AID1786, AID1966, AID2133, AID2136, AID2285, AID2495]; format: functional
[10] = molecular target: Hexokinase (Trypanosoma brucei, UniProt Q38C41); assay: Confirmation assay for inhibitors of Trypanosoma brucei hexokinase 1-Analogue-first series. [Related pubchem assays (depositor defined):AID1430, AID1632, AID2516, AID2560, AID2579, AID2600, AID449725, AID492951]; format: functional
Chain of Hexokinase (Q38C41 whole entry): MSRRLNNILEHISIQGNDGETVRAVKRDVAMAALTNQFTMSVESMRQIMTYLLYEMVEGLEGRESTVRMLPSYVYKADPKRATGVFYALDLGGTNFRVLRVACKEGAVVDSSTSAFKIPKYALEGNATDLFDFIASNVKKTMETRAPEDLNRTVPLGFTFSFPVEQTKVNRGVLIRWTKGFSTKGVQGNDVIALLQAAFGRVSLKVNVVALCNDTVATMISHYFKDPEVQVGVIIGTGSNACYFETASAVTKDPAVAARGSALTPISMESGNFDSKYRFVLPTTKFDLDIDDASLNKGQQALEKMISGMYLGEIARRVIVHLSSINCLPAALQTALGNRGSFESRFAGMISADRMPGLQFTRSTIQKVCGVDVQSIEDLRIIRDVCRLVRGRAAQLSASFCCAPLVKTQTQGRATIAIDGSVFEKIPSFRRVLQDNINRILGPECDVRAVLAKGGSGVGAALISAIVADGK

[11] = system: Streptococcus sp. 'group A'; assay: Streptococcus pyogenes SK(-)GAS viability under kanamycin – luminescence, BacTiterGlo, confirmation, counter-screen for streptokinase expression inhibitor project, dose response (AID 1900); format: functional, organism-based
[12] = molecular target: Nonstructural protein 1 (Influenza A virus, UniProt Q194T2); format: functional, Influenza A virus (A/California/07/2009(H1N1))
Chain of Nonstructural protein 1 (Q194T2 whole entry): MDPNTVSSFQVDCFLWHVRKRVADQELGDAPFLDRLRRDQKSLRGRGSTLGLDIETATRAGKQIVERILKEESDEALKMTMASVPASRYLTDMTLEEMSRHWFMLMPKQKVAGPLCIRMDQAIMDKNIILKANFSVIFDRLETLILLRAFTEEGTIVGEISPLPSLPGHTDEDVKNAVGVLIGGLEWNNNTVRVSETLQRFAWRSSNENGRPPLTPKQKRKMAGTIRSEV

[13] = Luminescence Cell-Based Dose Response HTS to Identify Inhibitors of 5'UTR Stem-Loop Driven Prion Protein mRNA Translation in H4 Neuroglioblastoma Cells. [Related pubchem assays: 1827 (Project Summary), 1813 (Primary HTS)]; format: functional
[14] = system: HEK293; assay: inhibition of NOD1-driven NF-kB reporter – cell-based, luminescence, uHTS, primary screen (AID 1578); format: functional; conditions: Homo sapiens
[15] = system: HEK293; assay: NOD2 signaling inhibitors in MDP-stimulated cells, cell-based, uHTS, luminescence (AID 2001); format: functional; conditions: Homo sapiens
[16] = system: HEK293; assay: cells; format: functional, cell-based; conditions: Homo sapiens
[17] = system: Vero; assay: cells; format: functional, cell-based, Chlorocebus sabaeus; conditions: Chlorocebus sabaeus, Vero
[18] = molecular target: Nucleotide-binding oligomerization domain-containing protein 2 (Homo sapiens, UniProt Q9HC29); assay: inhibition of NOD2-driven NF-kB reporter – cell-based, luminescence, uHTS, HEK293 (AID 1566); format: functional
[19] = luciferase reporter signal suppression in cells – H4 neuroglioma cells, luminescence, dose response (AID 1990); format: functional, cell-based
[20] = system: Streptococcus; assay: GAS UMAA2166 growth inhibition – luminescence, BacTiterGlo, counter-screen for streptokinase expression inhibitor project, dose response (AID 1915); format: functional, organism-based;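 also: potency for reduction of bacterial viability or growth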
[21] = system: HEK293; assay: cells; format: functional, cell-based; conditions: Homo sapiens; remark: listed apart in the source
[22] = molecular target: T1, Kappa-type opioid receptor; format: functional
[23] = molecular target: Beta-galactosidase (Escherichia coli, UniProt Q8VNN2); format: functional
Chain of Beta-galactosidase (Q8VNN2 whole entry): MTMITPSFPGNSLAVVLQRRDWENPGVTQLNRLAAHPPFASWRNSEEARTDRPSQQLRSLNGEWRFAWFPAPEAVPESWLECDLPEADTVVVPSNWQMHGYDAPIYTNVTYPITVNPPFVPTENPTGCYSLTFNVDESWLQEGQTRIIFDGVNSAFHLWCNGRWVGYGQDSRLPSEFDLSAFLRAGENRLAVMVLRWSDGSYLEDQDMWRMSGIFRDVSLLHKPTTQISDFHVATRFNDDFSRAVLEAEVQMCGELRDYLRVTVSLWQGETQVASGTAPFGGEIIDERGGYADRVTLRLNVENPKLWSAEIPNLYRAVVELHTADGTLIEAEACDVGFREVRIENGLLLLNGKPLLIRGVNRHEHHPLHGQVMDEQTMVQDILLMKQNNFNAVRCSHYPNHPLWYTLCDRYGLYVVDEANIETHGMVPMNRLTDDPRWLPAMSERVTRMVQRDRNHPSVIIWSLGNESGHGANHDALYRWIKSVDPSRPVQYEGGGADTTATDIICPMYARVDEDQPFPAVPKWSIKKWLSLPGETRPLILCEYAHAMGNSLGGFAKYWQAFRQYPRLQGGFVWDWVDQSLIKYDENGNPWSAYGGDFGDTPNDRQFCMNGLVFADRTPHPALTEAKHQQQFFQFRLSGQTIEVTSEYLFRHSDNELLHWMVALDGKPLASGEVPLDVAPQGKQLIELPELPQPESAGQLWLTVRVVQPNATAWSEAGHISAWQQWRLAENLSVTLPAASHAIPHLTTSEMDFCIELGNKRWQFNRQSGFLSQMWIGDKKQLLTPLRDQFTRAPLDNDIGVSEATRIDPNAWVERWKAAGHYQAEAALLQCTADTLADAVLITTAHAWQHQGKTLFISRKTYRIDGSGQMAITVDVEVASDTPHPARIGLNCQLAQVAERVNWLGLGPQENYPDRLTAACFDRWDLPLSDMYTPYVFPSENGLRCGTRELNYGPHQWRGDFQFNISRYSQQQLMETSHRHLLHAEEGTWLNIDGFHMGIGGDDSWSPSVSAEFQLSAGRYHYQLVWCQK

[24] = molecular target: T1, Kappa-type opioid receptor; format: functional; remark: listed apart in the source
[25] = alpha-synuclein stem-loop luciferase translation blockers – H4 neuroglioma cells, luminescence, confirmation (AID 1988); format: functional, cell-based
[26] = system: Vero; assay: cells; format: functional, Chlorocebus sabaeus; conditions: Chlorocebus sabaeus, Vero
[27] = system: INS1; assay: INS-1E survival protection against cytokine death – cell-based, luminescence, retest, dose response (AID 449756); format: functional; conditions: Rattus norvegicus;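 also: cell death triggered by IL-1 beta plus TNF-alpha plus IFN-gamma mixture; protective hits raise ATP signal compared with cytokine alone wells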
[28] = A Cell Based Secondary Assay To Explore Cytotoxicity of Compounds that Sensitize Mycobacterium Tuberculosis to Beta-Lactam Antibiotics.; format: functional
[29] = system: HEK293; assay: cells; format: functional, cell-based; conditions: Homo sapiens; remark: listed apart in the source

Chain of Female germline-specific tumor suppressor gld-1 (Q17339 whole entry): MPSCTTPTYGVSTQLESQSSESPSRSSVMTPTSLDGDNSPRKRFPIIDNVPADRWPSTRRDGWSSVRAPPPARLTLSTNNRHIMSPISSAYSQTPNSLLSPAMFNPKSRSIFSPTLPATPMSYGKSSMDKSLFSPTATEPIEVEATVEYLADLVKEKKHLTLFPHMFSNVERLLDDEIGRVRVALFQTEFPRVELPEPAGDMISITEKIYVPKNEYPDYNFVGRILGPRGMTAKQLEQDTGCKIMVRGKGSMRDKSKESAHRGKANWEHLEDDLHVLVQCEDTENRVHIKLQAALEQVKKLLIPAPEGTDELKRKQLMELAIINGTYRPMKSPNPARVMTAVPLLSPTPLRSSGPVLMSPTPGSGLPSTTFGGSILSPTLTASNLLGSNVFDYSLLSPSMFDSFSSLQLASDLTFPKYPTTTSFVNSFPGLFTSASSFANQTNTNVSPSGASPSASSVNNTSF

For CC(=O)N1CCN(C2=Nc3cccc4cccc2c34)CC1, the IC50 [1] was 7.57 µM (active), the IC50 [2] was 15.8 µM (not active) and the EC50 [3] was 36.7 µM (inactive).
With Cc1cc(NC(=O)c2c(F)c(F)c(F)c(F)c2F)no1 the AC50 [4] was 1.24 µM (active).
In the case of C=Cc1cnn(-c2ccc(C(C)C)cc2)c(=O)c1Oc1ccc(OC)cc1, the IC50 [5] is reported as 3.9 µM (active).
For CC(C)c1ccc(-n2ncc(Cl)c(Oc3ccc(CO)cc3)c2=O)cc1, the IC50 [5] was 3.7 µM (active).
In the case of Cc1ccc(CN(CCNC(=O)c2ccc(CNS(=O)(=O)c3cccc(C)c3)cc2)C(C)C)cc1, the IC50 [6] is reported as > 32 µM (inactive), the IC50 [7] is reported as > 32 µM (inactive) and the IC50 [8] is reported as 0.675 µM (active). The IC50 [9] was 1.83 µM (active).
With CN(C)c1ccc(C(=O)Nc2cc(Cl)ccc2C(=O)O)cc1 the IC50 [10] was > 25 µM (inactive).
In the case of COc1ccc(S(=O)(=O)NCc2ccc(C(=O)NCCN3Cc4ccccc4C3)cc2)cc1, the IC50 [6] is reported as > 32 µM (inactive), the IC50 [7] is reported as > 32 µM (inactive) and the IC50 [8] is reported as > 32 µM (inactive). The IC50 [9] was > 20 µM (inactive).
In the case of O=C(Cn1sc2ccccc2c1=O)NC1CCCCC1, the IC50 [10] is reported as 9.35 µM (active).
For C/C(=N\NC(=O)c1cc(Br)ccc1O)c1ccccn1, the EC50 [11] was 430 nM (active), the IC50 [12] was 30.4 µM (active) and the EC50 [13] was 10.3 µM (active). The EC50 [14] was > 20 µM (inactive), the IC50 [15] was 6.47 µM (inactive) and the IC50 [16] was 17.6 µM (active). The IC50 [17] was > 25 µM (active), the EC50 [18] was > 20 µM (inactive) and the EC50 [19] was 10.2 µM (inconclusive). The EC50 [20] was 3.7 µM (active), the IC50 [21] was > 20 µM (inactive) and the IC50 [22] was 3.54 µM (active). The EC50 [23] was > 31.5 µM (inactive), the IC50 [24] was greater than 32 µM and the EC50 [25] was 5.29 µM (active). For the same molecule, the CC50 [26] was 3.81 µM (active), the AC50 [27] was 1.74 µM (active) and the CC50 [28] was 3.47 µM (active). For the same molecule, the IC50 [29] was > 20 µM (inactive).
